Like-named read-outs stand apart in the source and are kept apart here.
Experiments:
N87 (HER2 Amp) = experiment: Growth inhibition GI50 in vitro (CCK8/MTT, 72 h); type: cell-based, human; settings: Homo sapiens
Calu-3 (Her2 amp) = experiment: Growth inhibition GI50 in vitro (CCK8/MTT, 72 h); type: cell-based; settings: Homo sapiens, Calu-3; Table 16; 1000 nM to 0.03 nM serial dilution; read-out: GI50 Calu3 (HER2 amp)
Description: (§1) Human lung adenocarcinoma cell line Calu-3 (ATCC) was cultured with 1×MEM complete medium (10% FBS, 1% double-antibiotics, 1% NEAA (Gibco), 2 mM glutamine and 1 mM of sodium pyruvate). Human breast cancer cell line SK-BR-3 was cultured with McCOY'S5A complete medium (10% FBS). Human colon cancer cell line SNU1040 (HER2 V777M positive) (ATCC) and human bronchoalveolar adenocarcinoma cell line NCI-H1781 (expressing HER2 exon 20 G776VC mutation) (ATCC) were cultured with 1×RPMI1640 complete medium (10% FBS), respectively.
(§2) The suspension cells were collected by centrifugation. The supernatant was discard and the cell pellet was resuspended and counted. Different cell concentrations (5˜10×10^4 cells/mL) were prepared according to the growth cycle of each cell line and then seeded on a 96-well plate (Corning), 100 μL/well. The cells were incubated over night at 37° C., 5% CO2. The compounds were added to the cells on the second day with 2 wells in parallel. The final concentration of organic solvent shall not exceed 1%. The cells were continually incubated for 72 h, and then subjected to MTT assay.
(§3) The present compounds and the reference compounds were dissolved with DMSO (Sigma), respectively. […] The storage concentration of compounds was 10 mM and kept at −20° C. They were diluted by 2 times or 10 times with serial dilution before using.
(§4) Dojindo CCK8 reagent kit was used as MTT assay. […] FC meter was used as microplate reader.
(§5) Adherent cell culture medium was discard and immediately replaced with fresh prepared medium which contains 10% CCK8 reagent (100 μL/well). For the suspension cells, CCK8 was directly added to 10% of the final concentration. The cells were continually incubated for 1˜4 h. When the color of control wells turned to dark yellow, the absorption value was measured at OD450 nm. The cell growth rate was calculated according to the following formula: cell growth rate (%)=100*(T−T0)/(C−T0), T=optical density of drug treatment cell well—optical density of blank control well; T0=optical density of cell well before drug treatment—optical density of blank control well; C=optical density of cell well of solvent control group—optical density of blank control well. […] The experiment was independently repeated 1˜3 times, and subject to biological statistical analysis.

[1] = tested on: NCI-H1781 (HER2 exon 20 G776VC mutation); experiment: Growth inhibition GI50 in vitro (CCK8/MTT, 72 h); type: cell-based; settings: Homo sapiens, NCI-H1781; Table 16; 1000 nM to 0.03 nM serial dilution; read-out: GI50 H1781 (HER2 G776VC)
Description: as §1
as §2, with “Adherent cells were digested with 0.25% pancreatin-EDTA (Gibco). The suspension” for “The suspension”
as §3, §4
(§6) Adherent cell culture medium was discard and immediately replaced with fresh prepared medium which contains 10% CCK8 reagent (100 μL/well). For the suspension cells, CCK8 was directly added to 10% of the final concentration. The cells were continually incubated for 1˜4 h. When the color of control wells turned to dark yellow, the absorption value was measured at OD450 nm. The cell growth rate was calculated according to the following formula: cell growth rate (%)=100*(T−T0)/(C−T0), T=optical density of drug treatment cell well—optical density of blank control well; T0=optical density of cell well before drug treatment—optical density of blank control well; C=optical density of cell well of solvent control group—optical density of blank control well. The concentration value of 50% inhibition of cell growth (GI50) was calculated. The experiment was independently repeated 1˜3 times, and subject to biological statistical analysis.
(§7) Furthermore, the present compounds (99, 136, 205, 211, 212, 213, 216, 229, 230, 231, 232, 233 and 236) were selected to carry out growth inhibition test for HER2/ERBB2 gene amplified or high expressed or mutant tumor cells. Afatinib and AZD9291 were used for references as second- and third-generation inhibitors of EGFR.
(§8) Each compound started at 1000 nM as an initial concentration and was diluted by 2 times with serial dilution to 0.03 nM. The GI50 value of each compound was calculated according to Test Example 1.3.

[2] = tested on: SNU1040 (HER2 V777M positive); experiment: Growth inhibition GI50 in vitro (CCK8/MTT, 72 h); type: cell-based; settings: Homo sapiens; Table 16; 1000 nM to 0.03 nM serial dilution; read-out: GI50 SNU-1040 (HER2 V777M)
Description: as §1
as §2, with “Adherent cells were digested with 0.25% pancreatin-EDTA (Gibco). The suspension” for “The suspension”
as §3, §4, §6, §7, §8

[3] = tested on: HER2/ErbB2 amplified cell line N87; experiment: In vivo tumor growth inhibition, xenograft; set-up: species or system Bab/c nude mice; settings: Mus musculus, po, 456 h, 25 mg/kg intragastric once daily, day 19, read-out: TGI (%)
From the text: Tumor xenograft models of immunodeficient mice are an effective tool to test the antitumor activity of the compound in vivo. Generally, the effectiveness of human tumor cell xenograft is positively correlated with the clinical treatment of human tumor. Bab/c immunodeficient mouse is one of the most commonly used xenograft animals with human tumor cells. In order to test whether the present compounds can inhibit the in vivo growth of the tumor cells expressing EGFR mutantion or HER2/ErbB2 overexpression, H1975, PC-9 and NCI-N87 cell lines were used in the experiments. When H1975, PC-9 and NCI-N87 cells were in growth logarithmic phase, they were digested with pancreatin. An appropriate amount of 1×RPMI1640 culture medium (serum-free) was added to stop digestion. The cells were collected to a 50 ml centrifuge tube (Corning), and centrifuged at 1700 rm for 3 min. The supernatant was discard, then the cells were suspended with 1×RPMI1640 culture medium and count the number. […] cells/mL was prepared and then placed on ice. 5˜10×10^6 (0.2 ml) cells were inoculated subcutaneously on the right side of the back of 6˜8 week old female Bab/c nude mice (about 20 g in weight). When the tumor average volume growed to 100˜200 mm^3, the mice were randomly divide into groups (3-6 mice per group), and marked by ear pierced tags and weighted. The test compounds and the reference compound (with a purity over 99% and individual impurity not higher than 0.2%) were formulated to emulsion suspension with CM (30% polyethylene glycol 400, 0.5% Tween-80 and 2.5% propylene glycol) respectively. Intragastric administration was continued once daily at a dosage of 25 mg/kg (0.1 ml/10 g mouse). The tumor was measured 3 times per week. When the average volume of the tumor in CM control group was up to 1500 mm^3 or after administration for 30 days, the experiment was ended.
The volume of tumor (V) was calculated as V=½*a*b^2 (a represents length of tumors, b represents width of tumors). Tumor growth inhibition (TGI) was calculated as: TGI (%)=100−(VT−VT0)/(VC−VC0)*100%; where VT0 and VT are the tumor volumes of the beginning and finish days of dosed groups; and VC0 and VC are the tumor volumes of the beginning and finish days for the control group, respectively.

H1975 (EGFR L858R/T790M) = experiment: Growth inhibition GI50 in vitro (CCK8/MTT, 72 h); type: cell-based, human; settings: Homo sapiens, NCI-H1975
PC-9 (EGFR dE746-A750) = experiment: Growth inhibition GI50 in vitro (CCK8/MTT, 72 h); type: cell-based, human; settings: Homo sapiens
[4] = tested on: SW48 (EGFR G719S positive); experiment: Growth inhibition GI50 in vitro (CCK8/MTT, 72 h); type: cell-based; settings: Homo sapiens, SW48; Table 15; 1000 nM to 0.03 nM serial dilution; read-out: GI50 SW48 (EGFR G719S)
Description: PC-9ER is an acquired Erlotinib resistance cell line of PC-9 cells developed by the investor. […] The four cell lines above were cultured with 1×RPMI1640 complete medium (supplement with 10% FBS). Human colon cancer cell line SW48 (EGFR G719S positive, ATCC). was cultured with L15 complete medium (10% FB S).
as §2, §3, §4, §5
Each compound started at 1000 nM as an initial concentration and was diluted by […] with serial dilution to 0.03 nM.

H292 (EGFR WT) = experiment: Growth inhibition GI50 in vitro (CCK8/MTT, 72 h); type: cell-based; settings: Homo sapiens, NCI-H292; Table 15; 1000 nM to 0.03 nM serial dilution; read-out: GI50 H292 (EGFR WT)
From the text: EGFR wild type cell lines: human epidermal cancer cell line A431 (EGFR WT, amplification and high expression, from Shanghai Cell Bank of Chinese Academy of Sciences and ATCC), NSCLC cell lines NCI-H460 (EGFR WT, Kras G61H and PI3KCA E545K mutants, ATCC) and NCI-H1299 (EGFR WT, ATCC), melanoma cell line A375 (EGFR WT and BRAF V600E mutant, from Shanghai Cell Bank of Chinese Academy of Sciences, ATCC), human lung cancer cell line NCI-H292 (EGFR WT, from human lung mucoepidermoid carcinoma/lymphatic metastasis, purchased from Shanghai Cell Bank of Chinese Academy of Sciences) were cultured with 1×RPMI1640 complete medium which was supplement with 10% FBS. NSCLC cell line A549 (EGFR WT and Kras G12S mutant, from Shanghai Cell Bank of Chinese Academy of Sciences) was cultured with 1×Ham'S F12K complete medium which was supplement with 10% FBS, 1% double-antibiotics and 2 mM glutamine.
as §2, §3, §4, §5

A549 (EGFR WT) = experiment: Growth inhibition GI50 in vitro (CCK8/MTT, 72 h); type: cell-based, human; settings: Homo sapiens, A549
[5] = Table 16, 1000 nM to 0.03 nM serial dilution, read-out: GI50 N87 (HER2 amp)

| GI50 (Calu-3 (Her2 amp)) [nM] | GI50 [1] [nM] | GI50 [2] [nM] | GI50 (H1975 (EGFR L858R/T790M); Table 13, 72 h, read-out: Range of GI50 H1975 (EGFR L858R/T790M)) [nM] | GI50 (H1975 (EGFR L858R/T790M); Table 15, 1000 nM to 0.03 nM serial dilution, read-out: GI50 H1975 (EGFR L858R/T790M)) [nM] | GI50 (PC-9 (EGFR dE746-A750); Table 13, 72 h, read-out: Range of GI50 PC-9 (EGFR dE746-A750)) [nM] | GI50 (PC-9 (EGFR dE746-A750); Table 15, 1000 nM to 0.03 nM serial dilution, read-out: GI50 PC-9 (EGFR dE746-A750)) [nM] | GI50 [4] [nM] | GI50 (H292 (EGFR WT)) [nM] | GI50 (A549 (EGFR WT); Table 13, 72 h, read-out: Range of GI50 A549 (EGFR WT)) [nM] | GI50 (A549 (EGFR WT); Table 15, 1000 nM to 0.03 nM serial dilution, read-out: GI50 A549 (EGFR WT)) [nM] | SMILES | GI50 (N87 (HER2 Amp); [5]) [nM] | inhibition in vivo at 25 mg/kg [3] [%] | GI50 (N87 (HER2 Amp); Table 13, 72 h, read-out: Range of GI50 N87 (HER2 Amp)) [nM] |
| --- | --- | --- | --- | --- | --- | --- | --- | --- | --- | --- | --- | --- | --- | --- |
| 2.62 | 1.17 | 79.1 | – | – | – | – | – | – | – | – | CN(C)C/C=C/C(=O)Nc1cc2c(Nc3ccc(F)c(Cl)c3)ncnc2cc1O[C@H]1CCOC1 [Afatinib, reference compound] | 1.25 | 98.3 | – |
| 1.26 | 0.95 | 10.3 | 10 to 100 | 19.1 | < 10 | 0.98 | 4.92 | > 1000 | > 1000 | > 1000 | C=CC(=O)Nc1cc(Nc2cc(Nc3cccc(C#N)c3)ncn2)c(OC)cc1N(C)CCN(C)C [Compound 229, N-(5-(6-(3-cyano-phenylamino)-pyrimidin-4-yl-amino)-2-((2-dimethylamino-ethyl)-methyl-amino)-4-methoxyl-phenyl)-acrylamide] | 1.95 | – | < 10 |
